PMC5064022, “KCNE1 induces fenestration in the Kv7.1/KCNE1 channel complex that allows for highly specific pharmacological targeting” (Nature Communications, 2016)

What was measured:
Assay type in all cases: cell-based
I274A/KCNE1 = I274A/KCNE1 (Homo sapiens, UniProt P15382+P51787, I274A); experiment: TEVC, mutant channel I274A/KCNE1 in oocytes; details: Kv7.1 I274A mutant with KCNE1
From the text: (§1) Ala scanning was previously used to identify specific residues that form the putative binding sites for chromanol and benzodiazepine derivatives that are considered to be classical pore blockers of Kv7.1 channels. Here we applied Ala scanning to multiple segments of the Kv7.1 α-subunit to identify potential AC-1 interaction sites in the extended pore region of Kv7.1/KCNE1 channels (Fig. 3a). In cases where mutation to Ala precluded channel function, alternative residues were introduced. […] Instead, most of these crucial residues cluster around a ‘window' formed uniquely in the preopen–closed state model of the Kv7.1/KCNE1 channel[33] (Fig. 3c, magenta residues). […]
(§2) Template cDNAs (wildtype or mutant human Kv7.1 in pSGEM, wildtype human KCNE1 in pSP64) were linearized with a suitable restriction enzyme (Nhe I/pSGEM, Eco RI/pSP64). cRNA was synthesized from 1 μg linearized cDNA by in vitro transcription (mMessage mMachine T7 or SP6 kit, Ambion, Life Technologies Darmstadt, Germany). cRNA concentrations were determined by photometry (Nanodrop, Peqlab, Erlangen, Germany) and cRNA quality was checked by agarose gel electrophoresis. […]
(§3) TEVC measurements were performed using a TurboTec-10CD amplifier (npi Electronic, Tamm, Germany) and an ITC-16 AD/DA-interface (Instrutech Corporation, Port Washington, New York, USA). […] Tail currents were recorded at −120 mV. […]

I337V/KCNE1 = I337V/KCNE1 (Homo sapiens, UniProt P15382+P51787, I337V); experiment: TEVC, mutant channel I337V/KCNE1 in oocytes; details: Kv7.1 I337V mutant with KCNE1
From the text: as §1, §2, §3

T312S/KCNE1 = T312S/KCNE1 (Homo sapiens, UniProt P15382+P51787, T312S); experiment: TEVC, mutant channel T312S/KCNE1 in oocytes; details: Kv7.1 T312S mutant with KCNE1
From the text: as §1, §2, §3

A344C/KCNE1 = A344C/KCNE1 (Homo sapiens, UniProt P15382+P51787, A344C); experiment: TEVC, mutant channel A344C/KCNE1 in oocytes; details: Kv7.1 A344C mutant with KCNE1
From the text: as §1, §2, §3

Q: For `CC(C)(Oc1ccc(Cl)cc1)C(=O)NC1C2CC3CC1CC(NS(C)(=O)=O)(C3)C2` (stereo not shown) [AC-1, 2-(4-chlorophenoxy)-2-methyl-N-[5-[(methylsulfonyl)amino]tricyclo[3.3.1.13,7]dec-2-yl]-propanamide], which IC50 (I274A/KCNE1) is on record?
A: 0.327 ± 0.083 µM

Q: What about the IC50 (I337V/KCNE1) of the same compound?
A: 6 ± 1.6 µM

Q: And the IC50 (T312S/KCNE1)?
A: > 50 µM

Q: And the IC50 (A344C/KCNE1)?
A: 1 ± 0.2 µM
